Data reported in patent US20230011869A1 (Hoffmann-La Roche Inc., priority 2018, published 2023).
Structures can show the parent of a compound that is named as a salt.

system: Acinetobacter baumannii ATCC17978; assay: Antimicrobial susceptibility testing: 90% growth inhibitory concentration (IC90) determination, Iso-Sensitest broth; type: cell-based; conditions: 90% growth inhibitory concentration, Acinetobacter baumannii ATCC17978, Iso-Sensitest broth, OD 600 nm over 16 h; read-out: ATCC17978 IC90
Procedure, shortened: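 A. baumannii ATCC17978 grown in Iso-Sensitest broth across 10 compound concentrations at 35±2 °C.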

IC90 [nM] | SMILES
290 | CCc1cc(Nc2nccn3c(-c4ccc(OCC#N)c(F)c4F)cnc23)ccc1C(=O)N1CCN(C(=O)C2CCNCC2)CC1 [Example 194, 2-[4-[8-[3-ethyl-4-[4-(piperidine-4-carbonyl)piperazine-1-carbonyl]anilino]imidazo [1,2-a]pyrazin-3-yl]-2,3-difluoro-phenoxy]acetonitrile formate]
100 | Cc1cc(Nc2nccn3c(-c4ccc(OCC#N)c(F)c4F)cnc23)ccc1C(=O)N1CCN(C(=O)[C@H]2CCNC2)CC1 [Example 201, 2-[2,3-difluoro-4-[8-[3-methyl-4-[4-[(3S)-pyrrolidine-3-carbonyl]piperazine-1-carbonyl]anilino]imidazo[1,2-a]pyrazin-3-yl]phenoxy] acetonitrile; formic acid]
93 | COc1ccc(-c2cnc3c(Nc4ccc(C(=O)N5CCN(C(=O)[C@@H]6CCNC6)CC5)c(C)c4)nccn23)c(F)c1F [Example 202, (R)-(4-(4-((3-(2,3-difluoro-4-methoxyphenyl)imidazo[1,2-a]pyrazin-8-yl)amino)-2-methylbenzoyl)piperazin-1-yl) (pyrrolidin-3-yl)methanone hydrochloride]
190 | COc1ccc(-c2cnc3c(Nc4ccc(C(=O)N5CCN(C(=O)C6CNC6)CC5)c(C)c4)nccn23)c(F)c1F [Example 203, [4-(azetidine-3-carbonyl)piperazin-1-yl]-[4-[[3-(2,3-difluoro-4-methoxy-phenyl)imidazo[1,2-a]pyrazin-8-yl]amino]-2-methyl-phenyl]methanone; hydrochloride]
110 | COc1ccc(-c2cnc3c(Nc4ccc(C(=O)N5CCN(C(=O)C6C7CCC6CNC7)CC5)c(C)c4)nccn23)c(F)c1F (stereo not shown) [Example 205, [4-(3-azabicyclo[3.2.1]octane-8-carbonyl)piperazin-1-yl]-[4-[[3-(2,3-difluoro-4-methoxy-phenyl)imidazo[1,2-a]pyrazin-8-yl]amino]-2-methyl-phenyl]methanone hydrochloride]
170 | Cc1cc(Nc2nccn3c(-c4ccc(OCC#N)c(F)c4Cl)cnc23)ccc1C(=O)N1CCC(C(=O)N2CCNC[C@@H]2CO)CC1 [Example 207, 2-[3-chloro-2-fluoro-4-[8-[4-[4-[(2R)-2-(hydroxymethyl)piperazine-1-carbonyl]piperidine-1-carbonyl]-3-methyl-anilino]imidazo[1,2-a]pyrazin-3-yl]phenoxy] acetonitrile]
160 | Cc1cc(Nc2nccn3c(-c4ccc(OCC#N)c(F)c4Cl)cnc23)ccc1C(=O)N1CCC(C(=O)N2CCNC[C@H]2CO)CC1 [Example 208, 2-[3-chloro-2-fluoro-4-[8-[4-[4-[(2S)-2-(hydroxymethyl)piperazine-1-carbonyl]piperidine-1-carbonyl]-3-methyl-anilino]imidazo[1,2-a]pyrazin-3-yl]phenoxy] acetonitrile formate]
94 | COc1ccc(-c2cnc3c(Nc4ccc(C(=O)N5CCN(C(=O)[C@H]6CCNC6)CC5)c(C)c4)nccn23)c(Cl)c1F [Example 210, [4-[[3-(2-chloro-3-fluoro-4-methoxy-phenyl)imidazo[1,2-a]pyrazin-8-yl]amino]-2-methyl-phenyl]-[4-[(3S)-pyrrolidine-3-carbonyl]piperazin-1-yl]methanone formate]
150 | COc1ccc(-c2cnc3c(Nc4ccc(C(=O)N5CCN(C(=O)C6(O)CCNCC6)CC5)c(C)c4)nccn23)c(Cl)c1F [Example 215, [4-[[3-(2-chloro-3-fluoro-4-methoxy-phenyl)imidazo[1,2-a]pyrazin-8-yl]amino]-2-methyl-phenyl]-[4-(4-hydroxypiperidine-4-carbonyl)piperazin-1-yl]methanone formate]
190 | COc1ccc(-c2cnc3c(Nc4ccc(C(=O)N5CCN(C(=O)[C@@H]6CCNC[C@H]6O)CC5)c(C)c4)nccn23)c(Cl)c1F [Example 216, [4-[[3-(2-chloro-3-fluoro-4-methoxy-phenyl)imidazo[1,2-a]pyrazin-8-yl]amino]-2-methyl-phenyl]-[4-[(3S,4R)-3-hydroxypiperidine-4-carbonyl]piperazin-1-yl]methanone formate]
280 | COc1ccc(-c2cnc3c(Nc4ccc(C(=O)N5CCN(C(=O)[C@H]6CCNC[C@H]6O)CC5)c(C)c4)nccn23)c(Cl)c1F [Example 217, [4-[[3-(2-chloro-3-fluoro-4-methoxy-phenyl)imidazo[1,2-a]pyrazin-8-yl]amino]-2-methyl-phenyl]-[4-[(3S,4S)-3-hydroxypiperidine-4-carbonyl]piperazin-1-yl]methanone]
220 | COc1ccc(-c2cnc3c(Nc4ccc(C(=O)N5CCN(C(=O)[C@H]6CCNC[C@@H]6O)CC5)c(C)c4)nccn23)c(Cl)c1F [Example 219, [4-[[3-(2-chloro-3-fluoro-4-methoxy-phenyl)imidazo[1,2-a]pyrazin-8-yl]amino]-2-methyl-phenyl]-[4-[(3R,4S)-3-hydroxypiperidine-4-carbonyl]piperazin-1-yl]methanone formate]
180 | CNCC(=O)N1CCN(C(=O)c2ccc(Nc3nccn4c(-c5ccc(OC)c(F)c5)cnc34)cc2C)CC1 [Example 224, 1-(4-(4-((3-(3-fluoro-4-methoxyphenyl)imidazo[1,2-a]pyrazin-8-yl)amino)-2-methylbenzoyl)piperazin-1-yl)-2-(methylamino) ethanone hydrochloride]
260 | Cc1cc(Nc2nccn3c(-c4ccc(OC(F)F)cc4)cnc23)ccc1C(=O)N1CCN(C(=O)CCNC(=N)N)CC1 [Example 225, 1-(3-(4-(4-((3-(4-(difluoromethoxy)phenyl)imidazo[1,2-a]pyrazin-8-yl)amino)-2-methylbenzoyl)piperazin-1-yl)-3-oxopropyl)guanidine]
520 | Cc1cc(Nc2nccn3c(-c4ccc(OC(F)F)cc4)cnc23)ccc1C(=O)N1CCN(C(=O)[C@H](C)N)CC1 [Example 226, (2S)-2-amino-1-[4-[4-[[3-4-(difluoromethoxy)phenyl]imidazo[1,2-a]pyrazin-8-yl]amino]-2-methyl-benzoyl]piperazin-1-yl]propan-1-one hydrochloride]
63 | Cc1cc(Nc2nccn3c(-c4ccc(OCC#N)c(F)c4F)cnc23)ccc1C(=O)N1CCN(C(=O)[C@@H]2C[C@](C)(O)CN2)CC1 [Example 230, 2-[2,3-difluoro-4-[8-[4-[4-[(2S,4S)-4-hydroxy-4-methyl-pyrrolidine-2-carbonyl]piperazine-1-carbonyl]-3-methyl-anilino]imidazo[1,2-a]pyrazin-3-yl]phenoxy] acetonitrile formate]
83 | CC[C@]1(O)CN[C@H](C(=O)N2CCN(C(=O)c3ccc(Nc4nccn5c(-c6ccc(OCC#N)c(F)c6F)cnc45)cc3C)CC2)C1 [Example 232, 2-[4-[8-[4-[4-[(2S,4R)-4-ethyl-4-hydroxy-pyrrolidine-2-carbonyl]piperazine-1-carbonyl]-3-methyl-anilino]imidazo[1,2-a]pyrazin-3-yl]-2,3-difluoro-phenoxy]acetonitrile formate]
370 | Cc1cc(Nc2nccn3c(-c4ccc(OC(C)C#N)c(F)c4F)cnc23)ccc1C(=O)N1CCN(CCCN(C)C)CC1 (stereo not shown) [Example 237, 2-[4-[8-[4-[4-[3-(dimethylamino)pro-pyl]piperazine-1-carbonyl]-3-methyl-anilino]imidazo[1,2-a]pyrazin-3-yl]-2,3-difluoro-phenoxy]propanenitrile formate]
210 | Cc1cc(Nc2nccn3c(-c4ccc(OC(C)C#N)c(F)c4F)cnc23)ccc1C(=O)N1CCN(CCN(C)C)CC1 (stereo not shown) [Example 238, 2-[4-[8-[4-[4-[2-(dimethylamino)ethyl]piperazine-1-carbonyl]-3-methyl-anilino]imidazo[1,2-a]pyrazin-3-yl]-2,3-difluoro-phenoxy]propanenitrile; 2,2,2-trifluoroacetic acid]
110 | Cc1cc(Nc2nccn3c(-c4ccc(O[C@@H](C)C#N)c(F)c4F)cnc23)ccc1C(=O)N1CCN(CCN(C)C)CC1 [Example 240, ((2S)-2-[4-[8-[4-[4-[2-(dimethylamino)ethyl]piperazine-1-carbonyl]-3-methyl-anilino]imidazo[1,2-a]pyrazin-3-yl]-2,3-difluoro-phenoxy]propanenitrile formate]
2200 | CCc1cc(Nc2nccn3c(-c4ccc(OC)c(F)c4)cnc23)ccc1C(=O)N1CCC(C(=O)O)CC1 [Example 241, 1-(2-Ethyl-4-((3-(3-fluoro-4-methoxyphenyl)imidazo[1,2-a]pyrazin-8-yl)amino)benzoyl)piperidine-4-carboxylic acid]
170 | CNCCCNC(=O)C1CCN(C(=O)c2ccc(Nc3nccn4c(-c5ccc(OCC#N)c(F)c5F)cnc34)cc2C)CC1 [Example 242, 1-(4-((3-(4-(cyanomethoxy)-2,3-difluorophenyl)imidazo[1,2-a]pyrazin-8-yl)amino)-2-methylbenzoyl)-N-(3-(methylamino)propyl)piperidine-4-carboxamide]
120 | Cc1cc(Nc2nccn3c(-c4ccc(OC(F)F)cc4)cnc23)ccc1C(=O)N1CCN(C(=O)Nc2ccncc2)CC1 [Example 245, 4-[4-[[3-[4-(difluoromethoxy)phenyl]imidazo[1,2-a]pyrazin-8-yl]amino]-2-methyl-benzoyl]-N-(4-pyridyl)piperazine-1-carboxamide]
92 | Cc1cc(Nc2nccn3c(-c4ccc(OCC#CCO)c(F)c4)cnc23)ccc1C(=O)N1CCC(CCN)CC1 [Example 246, [4-(2-aminoethyl)-1-piperidyl]-[4-[[3-[3-fluoro-4-(4-hydroxybut-2-ynoxy)phenyl]imidazo[1,2-a]pyrazin-8-yl]amino]-2-methyl-phenyl]methanone]

same assay, conditions: Acinetobacter baumannii, ATCC17978, 16 h, read-out: ATCC17978 IC90, 90% growth inhibitory concentration, Acinetobacter baumannii ATCC17978, Iso-Sensitest broth, OD 600 nm over 16 h

SMILES | IC90 [nM]
Cc1cc(Nc2nccn3c(-c4ccc(O[C@H](C)C#N)c(F)c4F)cnc23)ccc1C(=O)N1CCN(CCN(C)C)CC1 [Example 239, (2R)-2-[4-[8-[4-[4-[2-(dimethylamino)ethyl]piperazine-1-carbonyl]-3-methyl-anilino]imidazo[1,2-a]pyrazin-3-yl]-2,3-difluoro-phenoxy]propanenitrile formate] | 790
